In brackets after ≈: the same amount, converted by molar mass.
What was measured:
Format in all cases: functional
Pyricularia grisea [1] = test: Fungicidal activity against Magnaporthe grisea in rice plant assessed as prevention from rice blast disease measured as lesions under greenhouse at > 200 ppm for 8 days by foliar spray compound treated before inoculation
Pyricularia grisea [2] = test: Fungicidal activity against Magnaporthe grisea in rice plant assessed as prevention from rice blast disease measured as lesions under greenhouse at > 200 ppm for 8 days by soil drench compound treated before inoculation
Pyricularia grisea [3] = test: Fungicidal activity against Magnaporthe grisea in rice plant assessed as rice blast disease measured as damage under greenhouse by foliar spray for 8 days compound treated before inoculation; conditions: 192 h
Pyricularia grisea [4] = test: Fungicidal activity against Magnaporthe grisea in rice plant assessed as rice blast disease measured as damage under greenhouse at 25 ppm for 8 days by foliar spray compound treated before inoculation
Pyricularia grisea [5] = test: Fungicidal activity against Magnaporthe grisea in rice plant assessed as rice blast disease measured as damage under greenhouse at 1.6 ppm for 8 days by foliar spray compound treated before inoculation
Pyricularia grisea [6] = test: Fungicidal activity against Magnaporthe grisea in rice plant assessed as rice blast disease measured as damage under greenhouse at 6.3 ppm for 8 days by foliar spray compound treated before inoculation
Pyricularia grisea [7] = test: Fungicidal activity against Magnaporthe grisea in rice plant assessed as rice blast disease measured as damage under greenhouse at 0.4 ppm for 8 days by foliar spray compound treated before inoculation
Pyricularia grisea [8] = test: Fungicidal activity against Magnaporthe grisea in rice plant assessed as prevention from rice blast disease measured as lesions under greenhouse at 50 ppm for 8 days by soil drench compound treated before inoculation
Pyricularia grisea [9] = test: Fungicidal activity against Magnaporthe grisea in rice plant assessed as prevention from rice blast disease measured as lesions under greenhouse at 3.1 ppm for 8 days by foliar spray compound treated before inoculation
Pyricularia grisea [10] = test: Fungicidal activity against Magnaporthe grisea in rice plant assessed as prevention from rice blast disease measured as lesions under greenhouse at 50 ppm for 8 days by foliar spray compound treated before inoculation
Pyricularia grisea [11] = test: Fungicidal activity against Magnaporthe grisea in rice plant assessed as prevention from rice blast disease measured as lesions under greenhouse at 200 ppm for 8 days by foliar spray compound treated before inoculation
Pyricularia grisea [12] = test: Fungicidal activity against Magnaporthe grisea in rice plant assessed as prevention from rice blast disease measured as lesions under greenhouse at 200 ppm for 8 days by soil drench compound treated before inoculation

Row | Structure (SMILES) | Activity (Pyricularia grisea [1]) | Activity (Pyricularia grisea [2]) | Activity (Pyricularia grisea [11]) | also measured
1 | CC(NC(=O)C(C#N)C(C)(C)C)c1ccc(Cl)cn1 (stereo not drawn) | <=10% | <=10% | – | –
2 | C[C@@H](NC(=O)[C@@H](C#N)C(C)(C)C)c1ccc(Cl)cc1Cl | – | – | – | MIC (Pyricularia grisea [3]): 0.16 µg/mL (≈ 0.511 µM); Activity (Pyricularia grisea [4]): 4%; Activity (Pyricularia grisea [5]): 2%; Activity (Pyricularia grisea [6]): 3%; Activity (Pyricularia grisea [7]): 0%
3 | C=CC(C)(C)C(C#N)C(=O)NC(C)c1ccc(Cl)cc1OC (stereo not drawn) | – | – | – | Activity (Pyricularia grisea [8]): <=10%; Activity (Pyricularia grisea [9]): <=10%
4 | C[C@H](NC(=O)[C@H](C#N)C(C)(C)C)c1ccc(Cl)cc1Cl | – | – | – | MIC (Pyricularia grisea [3]): > 20 µg/mL; Activity (Pyricularia grisea [4]): 0%; Activity (Pyricularia grisea [5]): 0%; Activity (Pyricularia grisea [6]): 0%; Activity (Pyricularia grisea [7]): 0%
5 | C=CC(C)(C)C(C#N)C(=O)NC(C)c1ccc(Cl)cc1C (stereo not drawn) | – | <=10% | – | –
6 | C[C@@H](NC(=O)[C@H](C#N)C(C)(C)C)c1ccc(Cl)cc1Cl | – | – | – | MIC (Pyricularia grisea [3]): 0.04 µg/mL (≈ 0.128 µM); Activity (Pyricularia grisea [4]): 5%; Activity (Pyricularia grisea [5]): 4%; Activity (Pyricularia grisea [6]): 4%; Activity (Pyricularia grisea [7]): 3%
7 | C[C@H](NC(=O)[C@@H](C#N)C(C)(C)C)c1ccc(Cl)cc1Cl | – | – | – | MIC (Pyricularia grisea [3]): > 20 µg/mL; Activity (Pyricularia grisea [4]): 0%; Activity (Pyricularia grisea [5]): 0%; Activity (Pyricularia grisea [6]): 0%; Activity (Pyricularia grisea [7]): 0%
8 | CC(NC(=O)C(C#N)C(C)(C)C)c1ccc(Cl)c(Cl)c1 (stereo not drawn) | – | – | – | Activity (Pyricularia grisea [8]): <=10%; Activity (Pyricularia grisea [10]): <=10%
9 | CC(NC(=O)C(C#N)C(C)(C)C)c1ccc(Cl)cc1Cl (stereo not drawn) | – | – | – | Activity (Pyricularia grisea [8]): <=10%; Activity (Pyricularia grisea [9]): <=10%
10 | CC(NC(=O)C(C#N)C(C)(C)C)c1ccc(OC(F)(F)C(F)F)cc1 (stereo not drawn) | – | – | <=10% | Activity (Pyricularia grisea [12]): <=10%
11 | CC(NC(=O)C(C#N)C(C)(C)C)c1ccccc1Cl (stereo not drawn) | – | – | – | Activity (Pyricularia grisea [12]): <=10%
12 | CC(NC(=O)C(C#N)C(C)(C)C)c1cccc(Cl)c1 (stereo not drawn) | – | – | <=10% | Activity (Pyricularia grisea [12]): <=10%
13 | CC(NC(=O)C(C#N)C(C)(C)C)c1ccc(OC(F)F)cc1 (stereo not drawn) | – | – | – | Activity (Pyricularia grisea [8]): <=10%; Activity (Pyricularia grisea [10]): <=10%
14 | CC(NC(=O)C(C#N)C(C)(C)C)c1ccc(OC(F)(F)F)cc1 (stereo not drawn) | – | – | – | Activity (Pyricularia grisea [8]): <=10%; Activity (Pyricularia grisea [10]): <=10%
15 | CC(NC(=O)C(C#N)C(C)(C)C)c1ccc(C(F)(F)F)cc1 (stereo not drawn) | – | – | – | Activity (Pyricularia grisea [8]): <=10%; Activity (Pyricularia grisea [9]): <=10%
16 | Cc1ccc(C(C)NC(=O)C(C#N)C(C)(C)C)cc1 (stereo not drawn) | – | – | – | Activity (Pyricularia grisea [8]): <=10%; Activity (Pyricularia grisea [9]): <=10%
17 | COc1ccc(C(C)NC(=O)C(C#N)C(C)(C)C)cc1 (stereo not drawn) | – | – | <=10% | Activity (Pyricularia grisea [12]): <=10%
18 | CC(C)(C)C(C#N)C(=O)Nc1ccc(Cl)cc1 (stereo not drawn) | <=10% | <=10% | – | –
19 | CC(C)(C)C(C#N)C(=O)NCc1ccc(Cl)cc1 (stereo not drawn) | – | – | <=10% | Activity (Pyricularia grisea [12]): <=10%
20 | CCC(NC(=O)C(C#N)C(C)(C)C)c1ccc(Cl)cc1 (stereo not drawn) | <=10% | <=10% | – | –

Row | Structure (SMILES) | Activity (Pyricularia grisea [1]) | Activity (Pyricularia grisea [2]) | Activity (Pyricularia grisea [11]) | also measured
21 | CC(NC(=O)C(C#N)C(C)(C)C)c1ccc(Cl)nc1 (stereo not drawn) | – | <=10% | <=10% | –
22 | CC(NC(=O)C(C#N)C(C)(C)C)c1ccc(Cl)s1 (stereo not drawn) | – | <=10% | <=10% | –
23 | CC(NC(=O)C(C#N)C(C)(C)C)c1ccccc1 (stereo not drawn) | – | <=10% | <=10% | –
24 | CC(NC(=O)C(C#N)C(C)(C)C)c1ccc(F)cc1 (stereo not drawn) | – | <=10% | <=10% | –
25 | CC(C)NC(=O)C(C#N)C(C)(C)C (stereo not drawn) | <=10% | <=10% | – | –
26 | CC(C)C(C)NC(=O)C(C#N)C(C)(C)C (stereo not drawn) | <=10% | <=10% | – | –
27 | CC(NC(=O)C(C#N)=C1CCCC1)c1ccc(Cl)cc1 (stereo not drawn) | – | – | <=10% | Activity (Pyricularia grisea [12]): <=10%
28 | CC(NC(=O)C(C#N)=C1CCCCC1)c1ccc(Cl)cc1 (stereo not drawn) | <=10% | <=10% | – | –
29 | CCC(CC)=C(C#N)C(=O)NC(C)c1ccc(Cl)cc1 (stereo not drawn) | – | – | – | Activity (Pyricularia grisea [12]): <=10%; Activity (Pyricularia grisea [10]): <=10%
30 | CC(NC(=O)C1(C#N)CC1(C)C)c1ccc(Cl)cc1 (stereo not drawn) | <=10% | <=10% | – | –
31 | CC(C)=C(C#N)C(=O)NC(C)c1ccc(Cl)cc1 (stereo not drawn) | <=10% | <=10% | – | –
32 | CC(NC(=O)C1(C#N)CCCC1)c1ccc(Cl)cc1 (stereo not drawn) | <=10% | <=10% | – | –
33 | CC(NC(=O)C1(C#N)CCCCC1)c1ccc(Cl)cc1 (stereo not drawn) | <=10% | <=10% | – | –
34 | CCC(C#N)(CC)C(=O)NC(C)c1ccc(Cl)cc1 (stereo not drawn) | <=10% | <=10% | – | –
35 | CC(NC(=O)C(C)(C#N)C(C)(C)C)c1ccc(Cl)cc1 (stereo not drawn) | – | <=10% | <=10% | –
36 | CC(NC(=O)C(Br)(C#N)C(C)(C)C)c1ccc(Cl)cc1 (stereo not drawn) | – | – | <=10% | Activity (Pyricularia grisea [8]): <=10%
37 | CC(NC(=O)C(C)(C#N)C(C)C)c1ccc(Cl)cc1 (stereo not drawn) | <=10% | <=10% | – | –
38 | CC(NC(=O)C(C)(C)C#N)c1ccc(Cl)cc1 (stereo not drawn) | <=10% | <=10% | – | –
39 | CC(NC(=O)C(C#N)c1ccccc1)c1ccc(Cl)cc1 (stereo not drawn) | <=10% | <=10% | – | –
40 | CC(NC(=O)C(C#N)C1CCCC1)c1ccc(Cl)cc1 (stereo not drawn) | – | – | – | Activity (Pyricularia grisea [12]): <=10%; Activity (Pyricularia grisea [10]): <=10%

Row | Structure (SMILES) | Activity (Pyricularia grisea [1]) | Activity (Pyricularia grisea [2]) | Activity (Pyricularia grisea [11]) | also measured
41 | CC(NC(=O)C(C#N)C1CCCCC1)c1ccc(Cl)cc1 (stereo not drawn) | – | <=10% | <=10% | –
42 | CC(NC(=O)C(C#N)CC(C)(C)C)c1ccc(Cl)cc1 (stereo not drawn) | – | – | <=10% | Activity (Pyricularia grisea [8]): <=10%
43 | CCC(CC)C(C#N)C(=O)NC(C)c1ccc(Cl)cc1 (stereo not drawn) | – | – | – | Activity (Pyricularia grisea [8]): <=10%; Activity (Pyricularia grisea [9]): <=10%
44 | CCC(C)C(C#N)C(=O)NC(C)c1ccc(Cl)cc1 (stereo not drawn) | – | – | – | Activity (Pyricularia grisea [8]): <=10%; Activity (Pyricularia grisea [10]): <=10%
45 | CC(C)CC(C#N)C(=O)NC(C)c1ccc(Cl)cc1 (stereo not drawn) | – | – | <=10% | Activity (Pyricularia grisea [12]): <=10%
46 | CCCCC(C#N)C(=O)NC(C)c1ccc(Cl)cc1 (stereo not drawn) | – | – | – | Activity (Pyricularia grisea [12]): <=10%; Activity (Pyricularia grisea [10]): <=10%
47 | CC(NC(=O)C(C#N)C(C)C)c1ccc(Cl)cc1 (stereo not drawn) | – | – | <=10% | Activity (Pyricularia grisea [8]): <=10%
48 | CC(C#N)C(=O)NC(C)c1ccc(Cl)cc1 (stereo not drawn) | <=10% | <=10% | – | –
49 | CC(NC(=O)C(C(C)(C)C)S(C)(=O)=O)c1ccc(Cl)cc1 (stereo not drawn) | – | <=10% | <=10% | –
50 | CC(NC(=O)C(O)C(C)(C)C)c1ccc(Cl)cc1 (stereo not drawn) | <=10% | <=10% | <=10% | –
51 | CC(NC(=O)C([S+](C)[O-])C(C)(C)C)c1ccc(Cl)cc1 (stereo not drawn) | <=10% | <=10% | – | –
52 | COC(C(=O)NC(C)c1ccc(Cl)cc1)C(C)(C)C (stereo not drawn) | <=10% | <=10% | <=10% | –
53 | C#CC(C(=O)NC(C)c1ccc(Cl)cc1)C(C)(C)C (stereo not drawn) | – | <=10% | <=10% | –
54 | CC(NC(=O)C(F)C(C)(C)C)c1ccc(Cl)cc1 (stereo not drawn) | <=10% | <=10% | – | –
55 | CSC(C(=O)NC(C)c1ccc(Cl)cc1)C(C)(C)C (stereo not drawn) | – | <=10% | <=10% | –
56 | CC(NC(=O)C(Br)C(C)(C)C)c1ccc(Cl)cc1 (stereo not drawn) | – | – | – | Activity (Pyricularia grisea [12]): <=10%
57 | CC(C)(C)C(C#N)C(=O)NCCc1ccc(Cl)cc1 (stereo not drawn) | – | <=10% | <=10% | –
58 | CC(Cc1ccc(Cl)cc1)NC(=O)C(C#N)C(C)(C)C (stereo not drawn) | – | <=10% | <=10% | –
59 | COC(NC(=O)C(C#N)C(C)(C)C)c1ccc(Cl)cc1 (stereo not drawn) | <=10% | <=10% | – | –
60 | O=C1OCc2c(Cl)c(Cl)c(Cl)c(Cl)c21 [4,5,6,7-TETRACHLOROPHTHALIDE] | – | – | – | Activity (Pyricularia grisea [4]): 4%; Activity (Pyricularia grisea [5]): 0%; Activity (Pyricularia grisea [6]): 1%; Activity (Pyricularia grisea [7]): 0%

— ChEMBL document CHEMBL3045432, “Synthesis and Fungicidal Activity of -Cyanoacetamide Derivatives: Discovery of a New Rice Blast Fungicide, Diclocymet (S-2900)” (2002)
